Key:
[1] = Chemical stability: impurities by HPLC, initial and after 1 week 40° C./75% RH; assay type: physicochemical
Method: After a secondary drying overnight at 40° C. 15% RH in a convection tray dryer, the different ASD were characterized for physical stability (XRPD, Tg versus Relative humidity), chemical stability (impurity by HPLC after 1 week 40° C./75% RH) and in vitro dissolution.
Purity of each batch of ASD was tested by HPLC analysis on sample just after preparation and after one week storage in accelerated stability conditions: 40° C./75% RH open or closed. In closed conditions, ASDs were placed in closed bottles (heat induction seal) containing 1 g SORB-IT desiccant canister.
HPLC-analysis was performed using an Agilent 1100 or 1200 system with binary or quaternary pump, a diode array detector, a refrigerated autosampler, and column oven. Data analysis was performed using Empower 3 software. The column used was Zorbax Bonus RP 4.6×150 mm (3.5 μm). Acetonitrile/20 mM Potassium phosphate buffer pH 3.0 was used as mobile phase with a gradient concentration at a flow rate of 1.0 mL/min; UV detection was used at a wavelength of 220 nm.

[2] = Non-sink in vitro dissolution, micro-centrifuge method; assay type: physicochemical; settings: PBS pH 6.5 with 0.5 wt % SIF; for Dissolution C90 min / Dissolution C20 h: 37° C., theoretical maximum 1000 μg/mL; for Dissolution C90 min: 90 min; for Dissolution C20 h: 1200 min
Method: Dissolution of spray dried materials of belinostat has been tested in vitro, in non-sink conditions, in order to evaluate the ability of formulations to achieve supersaturation and sustainability of supersaturation relative to crystalline drug.
Dissolution was assessed using micro-centrifuge method (Curatolo et al. Pharm Res 2009:26(6):1419-1431). Micro-centrifuge dissolution method consisted of introducing a 1.8 mg equivalent belinostat as ASD into an empty micro-centrifuge tube and add 1.8 mL total volume dissolution media (PBS pH 6.5 with 0.5 wt % Simulated Intestinal Fluid) to achieve a theoretical maximum belinostat concentration in solution of 1000 μg/mL. For some formulations (marked with* in Table 2), ASDs were first exposed in pH 2.0 gastric media at 2000 μg/mL for 30 min before to be transferred to the PBS pH 6.5 with 0.5 wt % Simulated Intestinal Fluid at a final theoretical maximum belinostat concentration in solution of 1000 μg/mL. Tubes were placed at 37° C. Aliquot (50 μL) were taken from supernatant after centrifugation 15 800 g for 1 min at each time point (5, 10, 20, 45, 90 and 1200 minutes). Between each time point, solids in the centrifuge tube were resuspended by mixing the sample continuously on the vortex mixer for 30 s and the tube was placed back at 37° C. Aliquot samples were diluted using acetonitrile and drug concentration was determined by HPLC.

[3] = Amorphous or crystalline state by powder X-ray diffraction (XRPD); assay type: physicochemical; settings: for XRPD 1 week 40/75 open: 1 week 40° C. 75% RH open; for XRPD initial: freshly prepared
Method: Amorphous or crystalline state of freshly prepared spray dried dispersions described in Example 2 was assessed by Powder X-ray diffraction (XRPD). The same analysis was repeated after 1 week storage at 40° C. and 75% relative humidity in open conditions. XRPD patterns were obtained with Rigaku MiniFlex 600 X-Ray diffractometer operating with a copper anode ([…]; Kα2=1.54439 Å), generator set at 45 kV and 15 mA, in 2-theta range 3-40° 2θ, scanned at a rate of 2.5° 2θ per minute in continuous scanning mode, and using a D/teX Ultra high speed detector.

[4] = Glass transition temperature (Tg) by modulated DSC; assay type: physicochemical
Method: To also evaluate the physical stability of prepared ASDs, glass transition temperature (Tg) was determined at two relative humidity (RH) conditions (<5% and 75% RH) by modulated differential scanning calorimetry (m-DSC).
DSC curves were recorded using a TA Instruments Q2000 differential scanning calorimeter. Samples were heated under nitrogen flow from 0 to 200° C. at 2.5° C.±1.5° C./min in non-hermetically sealed pan for <5% RH analysis or from 0 to 130° C. at 2.5° C.±1.5° C./80 sec in hermetically sealed pan for 75% RH analysis.

[5] = cited from earlier work
[6] = vorinostat: phase I trial; cited from earlier work
[7] = above pH 8.5; cited from earlier work
[8] = cited from earlier work; remark: listed apart in the source
[9] = 1 week 40° C./75% RH closed, desiccant

In the case of `O=C(/C=C/c1cccc(S(=O)(=O)Nc2ccccc2)c1)NO` [Formulation 1], the “Bel Acid, Initial” value ([1]; just after preparation) was “Bel Acid <0.05 area %”, the “Total imp, Initial” value ([1]; just after preparation) was “Total imp <0.05 area %” and the “Dissolution C90 min” value [2] was 270 µg/mL. For the same compound, the “Dissolution C20 h” value [2] was 310 µg/mL, the “XRPD 1 week 40/75 open” value [3] was “Crystalline” and the XRPD initial [3] was “Crystalline”.
With `O=C(/C=C/c1cccc(S(=O)(=O)Nc2ccccc2)c1)NO` [Formulation 2] the “Bel Acid, 1 week 40/75 closed” value [1, 9] was “Bel Acid 0.10 area %”, the “Bel Dimer, 1 week 40/75 closed” value [1, 9] was “Bel Dimer 1.34 area %” and the “Total imp, 1 week 40/75 closed” value [1, 9] was “Total imp 1.49 area %”. The “Bel Acid, 1 week 40/75 open” value ([1]; 1 week 40° C./75% RH open) was “Bel Acid 0.10 area %”, the “Bel Dimer, 1 week 40/75 open” value ([1]; 1 week 40° C./75% RH open) was “Bel Dimer 0.25 area %” and the “Observation on storage 1 week 40/75 open” value ([1]; 1 week 40° C./75% RH open) was “Recrystallization”. The “Total imp, 1 week 40/75 open” value ([1]; 1 week 40° C./75% RH open) was “Total imp 0.42 area %”, the “Bel Acid, Initial” value ([1]; just after preparation) was “Bel Acid 0.05 area %” and the “Bel Dimer, Initial” value ([1]; just after preparation) was “Bel Dimer 0.48 area %”. For the same compound, the “Total imp, Initial” value ([1]; just after preparation) was “Total imp 0.59 area %”, the “Tg <5% RH” value ([4]; <5% RH, m-DSC) was 53 °C and the “glass transition temperature (Tg)” value ([4]; amorphous belinostat without polymer) was “about 53 °C”. For the same compound, the Observation during dissolution [2] was “Recrystallization”, the “Dissolution C90 min” value [2] was 363 µg/mL and the “Dissolution C20 h” value [2] was 387 µg/mL. The “XRPD 1 week 40/75 open” value [3] was “Crystalline”, the XRPD initial [3] was “Partially crystalline” and the “physical state upon storage (in words)” value ([3]; upon storage) was “undergoes recrystallization upon storage”.
For `O=C(CCCCCCC(=O)Nc1ccccc1)NO` [Vorinostat], the “permeability (in words)” value [5] is listed as “moderate permeability” and the absolute oral bioavailability [6] is listed as 43%.
In the case of `O=C(/C=C/c1cccc(S(=O)(=O)Nc2ccccc2)c1)NO` [belinostat, (2E)-N-hydroxy-3-[3-(phenylsulfamoyl)phenyl]prop-2-enamide], the “chemical stability in liquid solution” value [7] is given as “poor chemical stability”.
For `CC(O)C(=O)O.Cc1[nH]c2ccccc2c1CCNCc1ccc(/C=C/C(=O)NO)cc1` [panobinostat lactate], the “permeability (in words)” value [5] is listed as “highly permeable”, the “aqueous solubility, maximum” value ([8]; pH 2 or 3) is listed as ~5000 µg/mL and the “aqueous solubility at neutral pH” value ([8]; pH 6.8) is listed as 0.3 mg/mL. The aqueous solubility ([8]; pH 7.6) was 70 µg/mL, the “solubility in water (in words)” value ([8]; water) was “slightly soluble in water” and the absolute oral bioavailability [6] was “approximately 21%”.
